Consider two compounds from US8673866B2, “Stabilized formulation for oral administration of therapeutic agents and related methods” (The University of British Columbia, priority 2009, dated 2014).

For data set [1] the following is noted: oral; cited from earlier work.
The conditions of data set [2]: crystalline; cited from earlier work.
Data set [3] concerns Leishmania. The following applies: visceral leishmaniasis, IV administration; cited from earlier work.
Data set [4] concerns Leishmania donovani LV82. In words: Visceral leishmaniasis-infected murine model (liver LDU, BALB/c mice). In kind it is in vivo. As to the method:
(§1) To determine the anti-leishmanial activity of a representative oral AmpB formulation, the following studies were completed. BALB/c mice were intravenously infected with 5×10^7 Leishmania donovani LV82 promastigotes (obtained by culturing amastigotes taken directly from the spleen of an infected hamster) seven days prior to treatment. Following the seven days, mice were either administered five daily doses of miltefosine at 3 mg/kg po, or Formulation A at 2.5, 5, and 10 mg/kg po bid for five consecutive days or 20 mg/kg po qd for five consecutive days. Appropriate vehicle controls were also assessed. Animals were sacrificed 14 days post infection and Leishman-Donovan units (LDU) were assessed in livers of mice post mortem via microscopic enumeration of Giemsa-stained liver smears

Data set [5] can be described thus: Body and organ weights in the murine VL model. In kind it is in vivo, BALB/c mice. How it is done:
as §1

[6] abbreviates: 3 mg/kg p.o. qd, individual mice.

Where “and” joins values, the source holds several entries; their conditions need not be identical. Equal values may be shown once.

As to `C[C@@H]1[C@H](O)[C@@H](C)/C=C/C=C/C=C/C=C/C=C/C=C/C=C/[C@H](O[C@@H]2O[C@H](C)[C@@H](O)[C@H](N)[C@@H]2O)C[C@@H]2O[C@](O)(C[C@@H](O)C[C@@H](O)[C@H](O)CC[C@@H](O)C[C@@H](O)CC(=O)O[C@H]1C)C[C@H](O)[C@H]2C(=O)O` (relative stereo) [amphotericin B, [1R-(1R*,3S*,5R*,6R*,9R*,11R*,15S*,16R*,17R*,18S*,19E,21E,23E,25E, 27E,29E,31E,33R*,35S*,36R*,37S,)]-33-[(3-amino-3,6-dideoxy-β-D-mannopyranosyl)oxy]1,3,5,6,9,11,17,37-octahydroxy-15,16,18-trimethyl-13-oxo-14,39-dioxabicyclo-[33.3.1]nonatriaconta-19,21,23,25,27,29,31-heptaene-36-carboxylic acid], in data set [1], the bioavailability entry was “negligible”. The solubility in water result in data set [2] is listed as “insoluble”. In addition, the cure rate in data set [3] is given as 97%.

With `CCCCCCCCCCCCCCCCOP(=O)([O-])OCC[N+](C)(C)C` [Miltefosine, miltefosine], the “LDU mean ± SD” value in data set [4] (3 mg/kg p.o. qd, group mean (n=4)) came to 1537.604. The LDU in data set [4] (setting [6]) is 1581.58 and 1431.131 and 1736.921 and 1400.783. For the same compound, the “# of amastigotes per 200 nuclei” value in data set [4] (3 mg/kg p.o. qd, liver smears, individual mice) is 286 and 283 and 301 and 262. Also, in data set [4] (3 mg/kg, p.o. qd), the “% Reduction compared to Vehicle control (Average)” value is given as 51.7% and the “% Reduction compared to water control (Average)” value was found to be 49.3%. Also, the “inhibition of liver parasites” value in data set [4] (five daily doses at 3 mg/kg po) was found to be 47.5±7.0%. Further, in data set [5] (setting [6]), the “Body Weight” value is 19.8 g (2×) and 18.8 g and 18.5 g. Further, in data set [5] (3 mg/kg, p.o. qd), the Mean Body Weight Post-treatment came to 19.2 g and the Mean Body Weight Pre-treatment worked out at 19.3 g.
